According to ChEMBL document CHEMBL5537149, “Design, synthesis, and lead optimization of piperazinyl-pyrimidine analogues as potent small molecules targeting the viral capping machinery of Chikungunya virus” (Eur J Med Chem, 2024):
In brackets after ≈: the same amount, converted by molar mass.

Assays:
[1] = Cytotoxicity against African green monkey Vero cells assessed as reduction in overall metabolic activity incubated for 5 days by MTS reagent based absorbance method; type: toxicity, cell-based; settings: chlorocebus sabaeus, time 5 day
[2] = Aqueous solubility of compound at pH 7.4 by HPLC analysis; type: physicochemical
[3] = Metabolic stability in human liver microsomes assessed as half-life preincubated for 5 mins followed by NADPH addition and measured upto 60 mins by HPLC-MS/MS analysis; type: ADME, Microsome; settings: time < 65 min
[4] = Selectivity index, ratio of CC50 for cytotoxicity against African green monkey Vero cells to EC50 for antiviral activity against Chikungunya virus infected in African green monkey Vero cells assessed as reduction in viral induced cell death; type: toxicity, cell-based; settings: read-out: Ratio CC50/EC50
Chikungunya virus = experiment: Antiviral activity against Chikungunya virus infected in African green monkey Vero cells assessed as reduction in viral induced cell death incubated for 5 days by MTS reagent based absorbance method; type: functional, organism-based; settings: 120 h
Caco-2 [5] = experiment: Induction of apoptosis in human Caco-2 cells assessed as increase in PARP expression at 6.25 to 100 uM incubated for 72 hrs by Western blot analysis; type: toxicity, cell-based; settings: caco-2, 72 h, dose 6.25-100 µM
Caco-2 [6] = experiment: Induction of apoptosis in human Caco-2 cells assessed as increase in caspase-3 expression at 6.25 to 100 uM incubated for 72 hrs by Western blot analysis; type: toxicity, cell-based; settings: caco-2, 72 h, dose 6.25-100 µM
Caco-2 [7] = experiment: Cytotoxicity against human Caco-2 cells incubated for 24 to 72 hrs by MTT assay; type: toxicity, cell-based; settings: time 24-72 hrs

Compound: CCNc1nc(C)cc(N2CCN(C(=O)c3ccc(C)cc3)CC2)n1
- CC50 at 120 h [1]: 203 µM
- solubility [2]: > 120 µM
- half-life [3]: > 60 min
- selectivity ratio [4]: 84
- EC50 (Chikungunya virus): 2.4 µM

Compound: CCNc1cc(C)nc(N2CCN(C(=O)c3cccc([N+](=O)[O-])c3)CC2)n1
- CC50 at 120 h [1]: > 100 µM
- solubility [2]: 119 µM (≈ 44.1 µg/mL)
- half-life [3]: 57 min
- selectivity ratio [4]: > 24
- EC50 (Chikungunya virus): 4.2 µM

Compound: CCNc1cc(C)nc(N2CCN(C(=O)c3ccc(Cl)cc3)CC2)n1
- CC50 at 120 h [1]: 89 µM
- solubility [2]: > 120 µM
- half-life [3]: > 60 min
- selectivity ratio [4]: 37
- EC50 (Chikungunya virus): 2.4 µM

Compound: CCNc1nc(C)cc(N2CCN(C(=O)c3cccc(I)c3)CC2)n1
- CC50 at 120 h [1]: > 100 µM
- solubility [2]: > 120 µM
- half-life [3]: 42 min
- selectivity ratio [4]: > 98
- EC50 (Chikungunya virus): 1 µM

Compound: CCNc1nc(C)cc(NC2CCN(C(=O)c3cc(Cl)cc(Cl)c3)CC2)n1
- CC50 at 120 h [1]: 47 µM
- solubility [2]: 101 µM (≈ 41.2 µg/mL)
- half-life [3]: > 60 min
- selectivity ratio [4]: 3.4
- EC50 (Chikungunya virus): 14 µM

Compound: CCNc1cc(C)nc(N2CCN(S(=O)(=O)c3ccc4ccccc4c3)CC2)n1
- CC50 at 120 h [1]: 17 µM
- solubility [2]: 90 µM (≈ 37 µg/mL)
- half-life [3]: 20 min
- selectivity ratio [4]: 1.7
- EC50 (Chikungunya virus): 10 µM

Compound: Cc1cc(N2CCN(S(=O)(=O)c3ccc(Cl)cc3)CC2)nc(NC(C)C)n1
- CC50 at 120 h [1]: 19 µM
- solubility [2]: 76 µM (≈ 31.2 µg/mL)
- half-life [3]: 54 min
- selectivity ratio [4]: 4.9
- EC50 (Chikungunya virus): 3.8 µM

Compound: CCNc1nc(N2CCN(C(=O)c3cc(Cl)cc(Cl)c3)CC2)cc(C(F)(F)F)n1
- CC50 at 120 h [1]: > 50 µM
- solubility [2]: 2 µM (≈ 0.897 µg/mL)
- half-life [3]: 29 min
- EC50 (Chikungunya virus): > 12.5 µM

Compound: CCNc1ccnc(N2CCN(S(=O)(=O)c3ccc(Cl)cc3)CC2)n1
- CC50 at 120 h [1]: 28 µM
- solubility [2]: 94 µM (≈ 35.9 µg/mL)
- half-life [3]: 19 min
- selectivity ratio [4]: 2.7
- EC50 (Chikungunya virus): 10 µM

Compound: CCNc1cc(C)nc(N2CCN(C(=O)c3ccc(I)cc3)CC2)n1
- CC50 at 120 h [1]: > 100 µM
- solubility [2]: 116 µM (≈ 52.4 µg/mL)
- half-life [3]: > 60 min
- selectivity ratio [4]: > 34
- EC50 (Chikungunya virus): 2.9 µM

Compound: CCNc1nc(C)cc(N2CCN(C(=O)c3ccc(Cl)c([N+](=O)[O-])c3)CC2)n1
- CC50 at 120 h [1]: > 20 µM
- solubility [2]: > 120 µM
- half-life [3]: > 60 min
- selectivity ratio [4]: > 20
- EC50 (Chikungunya virus): 0.98 µM

Compound: Cc1cc(N(C)C)nc(N2CCN(C(=O)c3ccc(Br)cc3)CC2)n1
- CC50 at 120 h [1]: 76 µM
- solubility [2]: 114 µM (≈ 46.1 µg/mL)
- half-life [3]: 29 min
- selectivity ratio [4]: 6.02
- EC50 (Chikungunya virus): 13 µM

Compound: CCNc1nc(C)cc(N2CCN(C(=O)c3ccc(OC)cc3)CC2)n1
- CC50 at 120 h [1]: 136 µM
- Activity (Caco-2 [5]): Non-Toxic
- solubility [2]: > 120 µM
- half-life [3]: > 60 min
- Activity (Caco-2 [6]): Non-Toxic
- Activity (Caco-2 [7]): Non-Toxic
- selectivity ratio [4]: 97
- EC50 (Chikungunya virus): 1.4 µM

Compound: CCNc1nc(C)cc(N2CCN(C(=O)c3ccccc3)CC2)n1
- CC50 at 120 h [1]: > 308 µM
- solubility [2]: > 120 µM
- half-life [3]: > 60 min
- selectivity ratio [4]: > 150
- EC50 (Chikungunya virus): 2.05 µM

Compound: CCNc1cc(C(F)(F)F)nc(N2CCN(C(=O)c3ccc(Br)cc3)CC2)n1
- CC50 at 120 h [1]: > 25 µM
- solubility [2]: 1.2 µM (≈ 0.55 µg/mL)
- half-life [3]: 56 min
- EC50 (Chikungunya virus): > 6.3 µM

Compound: CCNc1nc(C)cc(N2CCN(C(=O)c3ccc(C)c(C)c3)CC2)n1
- CC50 at 120 h [1]: 65 µM
- solubility [2]: 118 µM (≈ 41.7 µg/mL)
- half-life [3]: > 60 min
- selectivity ratio [4]: 68
- EC50 (Chikungunya virus): 0.95 µM

Compound: CCNc1nc(C)cc(N2CCN(C(=O)c3ccc(C(C)(C)C)cc3)CC2)n1
- CC50 at 120 h [1]: 45 µM
- solubility [2]: 120 µM (≈ 45.8 µg/mL)
- half-life [3]: > 60 min
- selectivity ratio [4]: 19
- EC50 (Chikungunya virus): 2.4 µM

Compound: CCNc1cc(C(F)(F)F)nc(N2CCN(C(=O)c3cc(Cl)cc(Cl)c3)CC2)n1
- CC50 at 120 h [1]: > 25 µM
- solubility [2]: 3.5 µM (≈ 1.57 µg/mL)
- half-life [3]: 18 min
- EC50 (Chikungunya virus): > 6.3 µM

Compound: CNc1ccnc(N2CCN(S(=O)(=O)c3ccc(F)cc3)CC2)n1
- CC50 at 120 h [1]: 193 µM
- solubility [2]: > 120 µM
- half-life [3]: 48 min
- selectivity ratio [4]: 20
- EC50 (Chikungunya virus): 9.62 µM

Compound: CCNc1nc(C)cc(N2CCCC(NC(=O)c3cc(Cl)cc(Cl)c3)C2)n1 (stereo not given)
- CC50 at 120 h [1]: 12 µM
- solubility [2]: 22 µM (≈ 8.98 µg/mL)
- half-life [3]: 44 min
- selectivity ratio [4]: < 0.12
- EC50 (Chikungunya virus): > 100 µM

Compound: CCNc1ccnc(N2CCN(C(=O)c3ccc(Cl)cc3)CC2)n1
- CC50 at 120 h [1]: 47 µM
- solubility [2]: > 120 µM
- half-life [3]: > 60 min
- selectivity ratio [4]: 3.1
- EC50 (Chikungunya virus): 15 µM

Compound: CCNc1nc(C)cc(N2CCN(C(=O)c3ccc(Cl)c(C(F)(F)F)c3)CC2)n1
- CC50 at 120 h [1]: > 20 µM
- solubility [2]: 101 µM (≈ 43.2 µg/mL)
- half-life [3]: > 60 min
- selectivity ratio [4]: > 11
- EC50 (Chikungunya virus): 1.9 µM

Compound: CCNc1cc(C)nc(N2CCN(C(=O)c3cccc(Br)c3)CC2)n1
- CC50 at 120 h [1]: > 100 µM
- solubility [2]: > 120 µM
- half-life [3]: 9.5 min
- selectivity ratio [4]: > 20
- EC50 (Chikungunya virus): 5.1 µM

Compound: CCNc1cc(C)nc(N2CCN(C(=O)c3ccc(Br)cc3)CC2)n1
- CC50 at 120 h [1]: > 100 µM
- solubility [2]: 116 µM (≈ 46.9 µg/mL)
- half-life [3]: > 60 min
- selectivity ratio [4]: > 10
- EC50 (Chikungunya virus): 9.58 µM

Compound: CCNc1nc(C)cc(N2CCN(S(=O)(=O)c3ccc(Cl)cc3)CC2)n1
- CC50 at 120 h [1]: 11 µM
- solubility [2]: 104 µM (≈ 41.2 µg/mL)
- half-life [3]: 49 min
- selectivity ratio [4]: 3.9
- EC50 (Chikungunya virus): 2.76 µM

Compound: CCNc1cc(C)nc(NC2CCN(C(=O)c3cc(Cl)cc(Cl)c3)CC2)n1
- CC50 at 120 h [1]: 25 µM
- solubility [2]: 94 µM (≈ 38.4 µg/mL)
- half-life [3]: 30 min
- selectivity ratio [4]: 2.02
- EC50 (Chikungunya virus): 12 µM

Compound: Cc1cc(N2CCN(C(=O)c3cc(Cl)cc(Cl)c3)CC2)nc(N(C)C)n1
- CC50 at 120 h [1]: 67 µM
- solubility [2]: 109 µM (≈ 43 µg/mL)
- half-life [3]: > 60 min
- selectivity ratio [4]: 15
- EC50 (Chikungunya virus): 4.4 µM

Compound: Cc1cc(N2CCN(C(=O)c3ccc(Cl)cc3)CC2)nc(NC(C)C)n1
- CC50 at 120 h [1]: 46 µM
- solubility [2]: 115 µM (≈ 43 µg/mL)
- half-life [3]: > 60 min
- selectivity ratio [4]: 2.6
- EC50 (Chikungunya virus): 18 µM

Compound: CCNc1nc(C)cc(N2CCN(C(=O)c3cccc(Cl)c3)CC2)n1
- CC50 at 120 h [1]: 248 µM
- solubility [2]: > 120 µM
- half-life [3]: > 60 min
- selectivity ratio [4]: 38
- EC50 (Chikungunya virus): 6.6 µM

Compound: CCNc1nc(C)cc(N2CCN(C(=O)c3cccc(C(F)(F)F)c3)CC2)n1
- CC50 at 120 h [1]: 80 µM
- solubility [2]: > 120 µM
- half-life [3]: > 60 min
- selectivity ratio [4]: 60
- EC50 (Chikungunya virus): 1.3 µM

Compound: CCNc1ccnc(N2CCN(C(=O)c3ccc(F)cc3)CC2)n1
- CC50 at 120 h [1]: 183 µM
- solubility [2]: > 120 µM
- half-life [3]: > 60 min
- selectivity ratio [4]: 47
- EC50 (Chikungunya virus): 3.9 µM

Compound: CCNc1cc(N2CCN(S(=O)(=O)c3ccc(Cl)cc3)CC2)ncn1
- CC50 at 120 h [1]: 44 µM
- solubility [2]: 95 µM (≈ 36.3 µg/mL)
- half-life [3]: > 60 min
- selectivity ratio [4]: 2.7
- EC50 (Chikungunya virus): 15.9 µM

Compound: Cc1cc(N2CCN(C(=O)c3ccc(Br)cc3)CC2)nc(N(C)C)n1
- CC50 at 120 h [1]: > 100 µM
- solubility [2]: > 120 µM
- half-life [3]: > 60 min
- selectivity ratio [4]: > 15
- EC50 (Chikungunya virus): 6.6 µM

Compound: CNc1nc(C)cc(N2CCN(S(=O)(=O)c3ccc(F)cc3)CC2)n1
- CC50 at 120 h [1]: 99 µM
- solubility [2]: > 120 µM
- half-life [3]: > 60 min
- selectivity ratio [4]: 9.2
- EC50 (Chikungunya virus): 11 µM

Compound: CCNc1nc(C)cc(N2CCN(Cc3ccc(F)cc3)CC2)n1
- CC50 at 120 h [1]: 46 µM
- solubility [2]: 106 µM (≈ 34.9 µg/mL)
- half-life [3]: > 60 min
- selectivity ratio [4]: 2.1
- EC50 (Chikungunya virus): 22 µM
